# Measured values published in patent US12049642B2, “Corneal endothelial cells with increased cell density and compositions thereof” (Astellas Institute for Regenerative Medicine, priority 2011, dated 2024).
# B1: ANGPL7: Angiopoietin-Like Protein 7, included in the culture media with DKK2 and PDGFB (protein, UniProt O43827 27-346, looked up)
# Angiopoietin-related protein 7: QKLSKHKTPAQPQLKAANCCEEVKELKAQVANLSSLLSELNKKQERDWVSVVMQVMELESNSKRMESRLTDAESKYSEMNNQIDIMQLQAAQTVTQTSADAIYDCSSLYQKNYRISGVYKLPPDDFLGSPELEVFCDMETSGGGWTIIQRRKSGLVSFYRDWKQYKQGFGSIRGDFWLGNEHIHRLSRQPTRLRVEMEDWEGNLRYAEYSHFVLGNELNSYRLFLGNYTGNVGNDALQYHNNTAFSTKDKDNDNCLDKCAQLRKGGYWYNCCTDSNLNGVYYRLGEHNKHLDGITWYGWHGSTYSLKRVEMKIRPEDFKP
# Tests used:
# hESC-derived CEC = assay: Effect of ROCK inhibitor on harvested and replated hESC-derived CEC; format: cell-based, human; parameters: key to O/N Confluent: +: “O/N confluent” indicates the confluence of cultured cells after overnight plating, reflecting the degree of cell survival and/or attachment.; −: “O/N confluent” indicates the confluence of cultured cells after overnight plating, reflecting the degree of cell survival and/or attachment; key to Morphology: a high quality polygonal/hexagonal cell shape (“++”); a polygonal/hexagonal shape (“+”); fibroblastic morphology (“−”); key to COL8A1 mRNA / AQP1 mRNA / SLC16A3 mRNA: expression (“+”); non-expression (“−”)
# Procedure: Expression of COL8A1 and SLC16A3 were elevated relative to hESC (FIGS. 17E-17F).
# The harvested cells were further examined for morphology, ability to reestablished a confluent culture, and retaining expression of the CEC markers COL8A1, AQP1, and SLC16A by qPCR. […] Moreover, Maintenance with media containing ROCK inhibitor can help the cells maintain a high quality CEC morphology after harvesting and replating.
# Rock inhibitor […] (Wako, cat #253-00513) was dissolved in distilled H2O to make a 10 mM stock solution and sterile filtered and aliquoted. Rock inhibitor aliquot was thawed and added fresh to media daily.
# Cornea cells were grown as described in Example 2 and harvested by treatment with 0.25% Trypsin as described in Example 4 and replated, with variations (i.e., inclusion of ROCK inhibitor and/or ASC as described below).
# After plating, cells were viewed to identify any morphological changes, and specifically whether they regained their polygonal/hexagonal shape, were a mixed population of polygonal and fibroblastic shape, or if they had turned fibroblastic.
# Media was changed daily with fresh Rock inhibitor except for “Pretreatment” and “D1” paradigms. After 1 week of culture, RNA was collected and analyzed by QPCR for changes in COL8A1, AQP1, and SLC16A3 mRNA levels. The efficacy of the Rock inhibitor for harvesting cells were tested between 1-20 microM.
# For the “Pretreatment” paradigm, CEC were produced as described in Example 2. The cornea media was removed and replaced with either 10 microM Rock or 10 microM Rock with 0.3 mM ASC-P2 (L ascorbic acid phosphate magnesium salt n-hydrate (Wako, cat #013-19641)) for 1 hour before harvesting. Cells were harvested using 0.25% trypsin as described above, however, no Rock inhibitor was added during harvesting.
# For the “Rock overnight” paradigm, CEC were produced as described in Example 2, harvested with 0.25% trypsin as described above, and then plated overnight in the presence of 10 microM Rock inhibitor. The following morning, the media was removed, and no further Rock inhibitor was added to the media.
# For the “Rock maintenance” paradigm, CEC were produced as described in Example 2, harvested using 0.25% trypsin as described above, and were maintained in Rock inhibitor added daily to fresh media.
# For the “D1” paradigm, CEC were produced as described in Example 2, harvested using 0.25% trypsin as described above, and cultured in presence of Rock inhibitor for 1 week. Cornea cells were then grown for additional week in the presence or absence of Rock inhibitor, to determine whether the ROCK inhibitor contributed to the maintenance of their morphology.
# CEC = assay: ANGPL7 included in culture media during CEC differentiation; format: cell-based, human; conditions: in culture media in combination with DKK2 and PDGFB; methods of Example 1
# From the text: Accordingly, ANGPL7 may optionally be used in the differentiation of corneal endothelial cells, for example by its inclusion in the culture during and/or after formation of corneal endothelial cells. ANGPL1-8 may be used in place of or in addition to ANGPL7.
# [1] = D1: factors in media for the first week after plating, thereafter omitted
molecule,measurement,setting,value
"C[C@@H](N)[C@H]1CC[C@H](C(=O)Nc2ccncc2)CC1 [Rock, (1R,4r)-4-((R)-1-aminoethyl)-N-(pyridin-4-yl)cyclohexanecarboxamide]",morphology of the hESC CEC trypsinized and replated,"hESC-derived CEC; 1 μM Rock inhibitor, FIG. 17A",variable
same,morphology of the hESC CEC trypsinized and replated,"hESC-derived CEC; 5 μM Rock inhibitor, FIG. 17B",somewhat more uniform
same,morphology of the hESC CEC trypsinized and replated,"hESC-derived CEC; 10 μM Rock inhibitor, FIG. 17C",uniform and polygonal/hexagonal
same,morphology of the hESC CEC trypsinized and replated,"hESC-derived CEC; 20 μM Rock inhibitor, FIG. 17D",uniform and polygonal/hexagonal
same,SLC16A3 expression compared to PD1T that has not been harvested,"hESC-derived CEC; 20 μM Rock inhibitor, QPCR",unchanged
same,SLC16A3 expression compared to PD1T that has not been harvested,"hESC-derived CEC; 1-10 μM Rock inhibitor, QPCR",upregulated
same,O/N Confluent,"hESC-derived CEC; 1 microM (maint.), in media each day after plating",+
same,AQP1 mRNA,"hESC-derived CEC; 1 microM (maint.), QPCR",+
same,COL8A1 mRNA,"hESC-derived CEC; 1 microM (maint.), QPCR",+
same,SLC16A3 mRNA,"hESC-derived CEC; 1 microM (maint.), QPCR",+
same,Morphology,"hESC-derived CEC; 1 microM (maint.), after 1 week in culture",+
same,O/N Confluent,hESC-derived CEC; 5 microM (maint.),+
same,AQP1 mRNA,"hESC-derived CEC; 5 microM (maint.), QPCR",+
same,COL8A1 mRNA,"hESC-derived CEC; 5 microM (maint.), QPCR",+
same,SLC16A3 mRNA,"hESC-derived CEC; 5 microM (maint.), QPCR",+
same,Morphology,"hESC-derived CEC; 5 microM (maint.), after 1 week in culture",++
same,O/N Confluent,"hESC-derived CEC; 10 microM (maint.), ASC 0.3 mM where added",+
same,AQP1 mRNA,"hESC-derived CEC; 10 microM (maint.), QPCR",+
same,COL8A1 mRNA,"hESC-derived CEC; 10 microM (maint.), QPCR",+
same,SLC16A3 mRNA,"hESC-derived CEC; 10 microM (maint.), QPCR",+
same,Morphology,"hESC-derived CEC; 10 microM (maint.), after 1 week in culture",++
same,O/N Confluent,"hESC-derived CEC; 20 microM (maint.), ASC 0.3 mM where added",+
same,AQP1 mRNA,"hESC-derived CEC; 20 microM (maint.), QPCR",+
same,COL8A1 mRNA,"hESC-derived CEC; 20 microM (maint.), QPCR",+
same,SLC16A3 mRNA,"hESC-derived CEC; 20 microM (maint.), QPCR",+
same,Morphology,"hESC-derived CEC; 20 microM (maint.), after 1 week in culture",++
same,Morphology,hESC-derived CEC; [1],−
same,O/N Confluent,hESC-derived CEC; [1],+
same,O/N Confluent,"hESC-derived CEC; Pretreat: 10 microM Rock 1 hour before harvesting with 0.25% trypsin, ASC 0.3 mM where added",−
same,Morphology,"hESC-derived CEC; Pretreat: 10 microM Rock 1 hour before harvesting, after 1 week in culture",−
same,AQP1 mRNA,"hESC-derived CEC; Pretreat, QPCR after 1 week",+
same,COL8A1 mRNA,"hESC-derived CEC; Pretreat, QPCR after 1 week",+
same,SLC16A3 mRNA,"hESC-derived CEC; Pretreat, QPCR after 1 week",+
same,COL8A1 expression compared to PD1T that has not been harvested,"hESC-derived CEC; QPCR, FIG. 17E",relatively unchanged
same,cell uniformity and polygonal/hexagonal morphology,"hESC-derived CEC; concentrations up to 20 micromolar, FIGS. 17A-17D",dose-responsive improvement
same,O/N Confluent,"hESC-derived CEC; o/n: plated overnight with 10 microM Rock after harvest, ASC 0.3 mM where added",+
same,Morphology,"hESC-derived CEC; o/n: plated overnight with 10 microM Rock, after 1 week in culture",+
same,AQP1 mRNA,"hESC-derived CEC; o/n, QPCR after 1 week",+
same,COL8A1 mRNA,"hESC-derived CEC; o/n, QPCR after 1 week",+
same,SLC16A3 mRNA,"hESC-derived CEC; o/n, QPCR after 1 week",+
B1,packing and morphology of the resulting CEC,CEC,tighter packing and more hexagonal morphology
